What was measured:
Type in all cases: functional
[1] = system: HCT-116; test: Cytotoxicity against Homo sapiens (human) HCT116 cells after 48 hr by sulforhodamine B assay; settings: HCT-116, 48 h
[2] = system: NCI-H226; test: Cytotoxicity against Homo sapiens (human) NCI-H226 cells after 48 hr by sulforhodamine B assay; settings: NCI-H226, 48 h
[3] = system: MDA-MB-468; test: Cytotoxicity against Homo sapiens (human) MDA-MB-468 cells after 48 hr by sulforhodamine B assay; settings: MDA-MB-468, 48 h
[4] = system: HT-29; test: Cytotoxicity against Homo sapiens (human) HT-29 cells after 48 hr by sulforhodamine B assay; settings: HT-29, 48 h
[5] = system: OVCAR-8; test: Cytotoxicity against Homo sapiens (human) OVCAR8 cells after 48 hr by sulforhodamine B assay; settings: OVCAR-8, 48 h
[6] = system: 786-0; test: Cytotoxicity against Homo sapiens (human) 786-0 cells after 48 hr by sulforhodamine B assay; settings: 786-0, 48 h
[7] = system: UO-31; test: Cytotoxicity against Homo sapiens (human) UO31 cells after 48 hr by sulforhodamine B assay; settings: UO-31, 48 h
[8] = system: TK-10; test: Cytotoxicity against Homo sapiens (human) TK10 cells after 48 hr by sulforhodamine B assay; settings: TK-10, 48 h
[9] = system: SF-295; test: Cytotoxicity against Homo sapiens (human) SF295 cells after 48 hr by sulforhodamine B assay; settings: SF-295, 48 h
[10] = system: KM12; test: Cytotoxicity against Homo sapiens (human) KM12 cells after 48 hr by sulforhodamine B assay; settings: KM12, 48 h
[11] = system: MDA-MB-231; test: Cytotoxicity against Homo sapiens (human) MDA-MB-231 cells after 48 hr by sulforhodamine B assay; settings: MDA-MB-231, 48 h
[12] = system: Hs-578T; test: Cytotoxicity against Homo sapiens (human) Hs 578T cells after 48 hr by sulforhodamine B assay
[13] = system: SK-MEL-28; test: Cytotoxicity against Homo sapiens (human) SK-MEL-28 cells after 48 hr by sulforhodamine B assay; settings: SK-MEL-28, 48 h
[14] = system: SK-MEL-2; test: Cytotoxicity against Homo sapiens (human) SK-MEL-2 cells after 48 hr by sulforhodamine B assay; settings: SK-MEL-2, 48 h
[15] = system: SK-OV-3; test: Cytotoxicity against Homo sapiens (human) SKOV3 cells after 48 hr by sulforhodamine B assay; settings: SK-OV-3, 48 h
[16] = system: HCT-15; test: Cytotoxicity against Homo sapiens (human) HCT15 cells after 48 hr by sulforhodamine B assay; settings: HCT-15, 48 h
[17] = Cytotoxicity against Homo sapiens (human) NCI-ADR-RES cells after 48 hr by sulforhodamine B assay
[18] = system: MOLT-4; test: Cytotoxicity against Homo sapiens (human) MOLT4 cells after 48 hr by sulforhodamine B assay; settings: MOLT-4, 48 h
[19] = system: HOP-62; test: Cytotoxicity against Homo sapiens (human) HOP62 cells after 48 hr by sulforhodamine B assay; settings: HOP-62, 48 h
[20] = system: K562; test: Cytotoxicity against Homo sapiens (human) K562 cells after 48 hr by sulforhodamine B assay; settings: K562, 48 h
[21] = system: CCRF-CEM; test: Cytotoxicity against Homo sapiens (human) CCRF-CEM cells after 48 hr by sulforhodamine B assay
[22] = system: ACHN; test: Cytotoxicity against Homo sapiens (human) ACHN cells after 48 hr by sulforhodamine B assay
[23] = system: SF-539; test: Cytotoxicity against Homo sapiens (human) SF539 cells after 48 hr by sulforhodamine B assay; settings: SF-539, 48 h
[24] = system: LOX IMVI; test: Cytotoxicity against Homo sapiens (human) LOXIMVI cells after 48 hr by sulforhodamine B assay
[25] = system: SF-268; test: Cytotoxicity against Homo sapiens (human) SF268 cells after 48 hr by sulforhodamine B assay; settings: SF-268, 48 h
[26] = system: SNB-19; test: Cytotoxicity against Homo sapiens (human) SNB19 cells after 48 hr by sulforhodamine B assay; settings: SNB-19, 48 h
[27] = system: OVCAR-3; test: Cytotoxicity against Homo sapiens (human) OVCAR3 cells after 48 hr by sulforhodamine B assay; settings: OVCAR-3, 48 h
[28] = system: CAKI-1; test: Cytotoxicity against Homo sapiens (human) Caki1 cells after 48 hr by sulforhodamine B assay; settings: CAKI-1, 48 h
[29] = system: MCF7; test: Cytotoxicity against Homo sapiens (human) MCF7 cells after 48 hr by sulforhodamine B assay; settings: MCF7, 48 h
[30] = system: OVCAR-5; test: Cytotoxicity against Homo sapiens (human) OVCAR5 cells after 48 hr by sulforhodamine B assay; settings: OVCAR-5, 48 h
[31] = system: HCC 2998; test: Cytotoxicity against Homo sapiens (human) HCC2998 cells after 48 hr by sulforhodamine B assay; settings: HCC 2998, 48 h

O=C(c1ccc(O)cc1)n1nc(-c2c(Cl)cccc2Cl)sc1=S showed a GI50 [1] of 10.7 µM, an LC50 [1] of 52.5 µM and a TGI ([1]; read-out: pTGI (converted)) of 24 µM. It also gave a GI50 [2] of 12.9 µM, an LC50 [2] of over 100 µM and a TGI ([2]; read-out: pTGI (converted)) of 57.5 µM. For the same compound, the GI50 [3] was 8.71 µM, the LC50 [3] was over 100 µM and the TGI ([3]; read-out: pTGI (converted)) was 91.2 µM. For the same compound, the GI50 [4] was 8.32 µM, the LC50 [4] was 53.7 µM and the TGI ([4]; read-out: pTGI (converted)) was 22.9 µM. It also gave a GI50 [5] of 22.9 µM, an LC50 [5] of over 100 µM and a TGI ([5]; read-out: pTGI (converted)) of 72.4 µM. It also gave a GI50 [6] of 2.34 µM, an LC50 [6] of 53.7 µM and a TGI ([6]; read-out: pTGI (converted)) of 17 µM. For the same compound, the GI50 [7] was 9.33 µM, the LC50 [7] was over 100 µM and the TGI ([7]; read-out: pTGI) was over 100 µM. For the same compound, the GI50 [8] was 4.47 µM, the LC50 [8] was over 100 µM and the TGI ([8]; read-out: pTGI (converted)) was 42.7 µM. It also gave a GI50 [9] of 5.13 µM, an LC50 [9] of over 100 µM and a TGI ([9]; read-out: pTGI (converted)) of 29.5 µM. The GI50 [10] was 3.8 µM, the LC50 [10] was 41.7 µM and the TGI ([10]; read-out: pTGI (converted)) was 14.8 µM. It also gave a GI50 [11] of 13.2 µM, an LC50 [11] of over 100 µM and a TGI ([11]; read-out: pTGI (converted)) of 60.3 µM. It also gave a GI50 [12] of 29.5 µM, an LC50 [12] of over 100 µM and a TGI ([12]; read-out: pTGI (converted)) of 89.1 µM. For the same compound, the GI50 [13] was 16.2 µM, the LC50 (concentration killing 50% of cells) [13] was 87.1 µM and the TGI ([13]; read-out: pTGI (converted)) was 37.2 µM. The GI50 [14] was 14.5 µM, the LC50 [14] was 95.5 µM and the TGI ([14]; read-out: pTGI (converted)) was 37.2 µM. For the same compound, the GI50 [15] was 17.4 µM, the LC50 [15] was over 100 µM and the TGI ([15]; read-out: pTGI (converted)) was 44.7 µM. It also gave a GI50 [16] of 6.46 µM, an LC50 (concentration killing 50% of cells) [16] of over 100 µM and a TGI ([16]; read-out: pTGI (converted)) of 32.4 µM. The GI50 [17] was 10 µM, the LC50 [17] was over 100 µM and the TGI ([17]; read-out: pTGI (converted)) was 49 µM. For the same compound, the GI50 [18] was 4.47 µM, the LC50 [18] was over 100 µM and the TGI ([18]; read-out: pTGI (converted)) was 27.5 µM. For the same compound, the GI50 [19] was 18.6 µM, the LC50 [19] was over 100 µM and the TGI ([19]; read-out: pTGI (converted)) was 43.7 µM. The GI50 [20] was 3.39 µM, the LC50 [20] was over 100 µM and the TGI ([20]; read-out: pTGI (converted)) was 28.8 µM. The GI50 [21] was 9.55 µM, the LC50 [21] was over 100 µM and the TGI ([21]; read-out: pTGI) was over 100 µM. The GI50 [22] was 7.76 µM, the LC50 [22] was over 100 µM and the TGI ([22]; read-out: pTGI (converted)) was 41.7 µM. It also gave a GI50 [23] of 14.8 µM, an LC50 [23] of 58.9 µM and a TGI ([23]; read-out: pTGI (converted)) of 29.5 µM. For the same compound, the GI50 [24] was 10 µM, the LC50 [24] was 75.9 µM and the TGI ([24]; read-out: pTGI (converted)) was 27.5 µM. For the same compound, the GI50 [25] was 7.59 µM, the LC50 [25] was over 100 µM and the TGI ([25]; read-out: pTGI (converted)) was 34.7 µM. For the same compound, the GI50 [26] was 15.1 µM, the LC50 [26] was over 100 µM and the TGI ([26]; read-out: pTGI (converted)) was 67.6 µM. The GI50 [27] was 6.17 µM, the LC50 [27] was 67.6 µM and the TGI ([27]; read-out: pTGI (converted)) was 28.8 µM. It also gave a GI50 [28] of 6.03 µM, an LC50 [28] of over 100 µM and a TGI ([28]; read-out: pTGI (converted)) of 57.5 µM. The GI50 [29] was 11.5 µM, the LC50 [29] was 87.1 µM and the TGI ([29]; read-out: pTGI (converted)) was 32.4 µM. For the same compound, the GI50 [30] was 19.5 µM, the LC50 [30] was over 100 µM and the TGI ([30]; read-out: pTGI (converted)) was 61.7 µM. The GI50 [31] was 4.9 µM, the LC50 [31] was over 100 µM and the TGI ([31]; read-out: pTGI (converted)) was 28.8 µM.

Source: ChEMBL document CHEMBL3046521, “Synthesis and antitumor activity of (4-hydroxyphenyl)[5-substituted alkyl/aryl)-2-thioxo-1,3,4-thiadiazol-3-yl]methanone and [(3,4-disubstituted)-1,3-thiazol-2ylidene]-4-hydroxybenzohydrazide” (2011)
